Two compounds from patent US20210379099A1 (priority 2020, published 2021) can be followed below.

“Also recorded” adds a separate entry of the source.

Test [1] is classed as binding. As to conditions: read-out: Kd (Me4CB[8]•guest).
In test [2] the test system is PCP-induced hyperlocomotion. Description: In vivo reversal of PCP-induced hyperlocomotion (open field, locomotion counts). More on the design: species or system mice. As to conditions: listed as PCP.

Consider `CNC1(c2ccccc2Cl)CCCCC1=O` (stereo not shown) [Ketamine 7, Ketamine], for which, in test [1], the Kd (usually the constant that tells how readily two partners part at equilibrium) stood at 36 nM.

For the compound `c1ccc(C2(N3CCCCC3)CCCCC2)cc1` [PCP 8, Phencyclidine], the “locomotion counts, PCP alone” value is “increased locomotion significantly; also recorded: significant increase in locomotion counts” in test [2] (experiment 1, male Swiss Webster mice n=8, PCP 2 mg/kg, 0.2 mL infusion, vs saline, Me4CB[8] alone, premix); “significantly increased locomotion counts; also recorded: significant increase in locomotion counts” in test [2] (experiment 2, male Swiss Webster mice n=9, PCP 1.95 mg/kg, vs saline and sequential infusions). Moreover, in test [1], the Kd is 2 nM.
